This is an account of results in patent US9751896B1, “Asymmetric 7-N isatin dimer Schiff base compounds with antitumor activities and a method of preparing the same” (SHAANXI UNIVERSITY OF SCIENCE AND TECHNOLOGY, priority 2016, dated 2017).

Usually melting point stands for the temperature, or range, at which the solid turns liquid.

Series [1] concerns human lung cancer cells (A-549). As to the kind of experiment: Tumor cell proliferation inhibition test (MTT), A-549. The note with it: A549 cells, 48 hours treatment, read-out: Half Inhibitory Concentration IC50 A549. The series is classed as cell-based. The protocol:
(§1) The compounds of the present invention were subjected to tumor cell proliferation inhibition test, and conventional MTT method was used.
(§2) Cell lines: human hepatoma cells (HepG2), human lung cancer cells (A-549), human gastric cancer cells (SGC-7901). The culture medium was DMEM+15% NBS+double antibody.
(§3) Sample solution preparation: after dissolving with DMSO (Merck), PBS (−) was added to obtain 100 μmol/L solution or homogeneous suspension. The solution was diluted with PBS (−) in DMSO to a final concentration of 0.1, 1, 10, 20, 40, 60, 80, 100 μmol/L.
(§4) Antitumor drug cytarabine (Ara-C) was used as control solution, prepared under the same condition.
(§5) Cell culture: adherent growth Tumor cells were cultured in 1640 medium containing 10% inactivated neonatal bovine serum and penicillin, streptomycin (1 million U/L), placed in carbon dioxide incubator at 37° C., 5% CO2, and saturated humidity. Cells were treated serially passaged 2-3 times. The first culture was washed with PBS 2 times, and digested with trypsin. Fresh culture medium was added evenly, cells were adjusted to a appropriate concentration and transferred into a new culture flask. Cell in an exponential phase were chosen for the tests.
(§6) MTT Assay for Cell Viability and IC50 Determination:
(§7) Experimental Principle: Living cells mitochondria in the dehydrogenase can reduce yellow MTT to water-insoluble blue-violet product MT (MTT formazan), deposited in the cells. The amount of production is proportional to the number of living cells. […] DMSO can dissolve blue violet crystals, and the color depth is proportional to the amount contained, so the absorbance measured by the microplate reader can reflect the cell viability.
(§8) Methods: The exponential phase cells were digested and counted and seeded in 96-well plates at a density of 2×10^4/mL at 100 μl per well. After 24 hours of incubation, the cells to be tested were treated with 0.1, 1, 10, 20, 40, 60, 80, 100 μmol/L of the compounds. Each experimental group had 5 wells in each concentration, and the culture medium containing 0.4% DMSO was used as control. After 48 hours, the supernatant was discarded, and 100 μl of MTT ((2-(4,5-dimethyl-2-thiazolyl)-3,5-diphenyl-2H-[…]) (1 mg/mL) was added to each well. After another 4 hours, the supernatant was discarded, and 100 μl of DMSO was added to each well. After mixing, the absorbance was measured at 570 nm using a microplate reader. An IC50 calculation software was used to determine the half inhibitory concentration (IC50).

In series [2] the test system is human hepatoma cells (HepG2). As to the kind of experiment: Tumor cell proliferation inhibition test (MTT), HepG2. The format is cell-based. The settings on record: 48 hours treatment, read-out: Half Inhibitory Concentration IC50 HepG2. The procedure:
as §1, §2, §3, §4, §5, §6, §7, §8

Series [3] deals with human gastric cancer cells (SGC-7901). As to the kind of experiment: Tumor cell proliferation inhibition test (MTT), SGC-7901. The series is classed as cell-based. The note with it: SGC-7901 cells, 48 hours treatment, read-out: Half Inhibitory Concentration IC50 SGC-7901. The procedure:
as §1, §2, §3, §4, §5, §6, §7, §8

A value given as a limit tells only on which side of the number the result lay.

On to `Nc1ccn([C@@H]2O[C@H](CO)[C@@H](O)[C@@H]2O)c(=O)n1` [Ara-C, cytarabine, reference compound], for which the figures for the IC50 in series [1], in series [2] and in series [3] were 14.9 ± 0.64 µM, 18.3 ± 0.28 µM and 18.2 ± 0.39 µM, respectively.
Consider `Cc1cnc2c(c1)/C(=N/N=C1\C(=O)Nc3ncc(Cl)cc31)C(=O)N2` [Compound 1], for which the melting point came to 174.5 °C. Besides, the IC50 in series [1] is 55.8 ± 2.67 µM. The IC50 in series [2] was above 100 µM. Besides, in series [3], the IC50 is 42.3 ± 1.89 µM.
The compound `CN1C(=O)/C(=N\N=C2/C(=O)N(Cc3ccccc3)c3ncccc32)c2cccnc21` [Compound 4] gave a melting point of 214.3 °C. The IC50 in series [1] was 85.8 ± 2.96 µM. The IC50 in series [2] is above 100 µM. Besides, the IC50 in series [3] is above 100 µM.
In the case of `CCN1C(=O)/C(=N\N=C2/C(=O)N(C)c3ncccc32)c2cccnc21` [Compound 5], the melting point turned out to be 195.6 °C. For the same compound, the IC50 in series [2] worked out at 28.7 ± 0.4 µM. For the same compound, the IC50 in series [3] was found to be 46.9 ± 0.85 µM.
In turn, `CCN1C(=O)/C(=N\N=C2/C(=O)N(C(C)C)c3ncccc32)c2cccnc21` [Compound 6] yielded a melting point of 191.9 °C. Moreover, in series [1], the IC50 is above 100 µM. Besides, the IC50 in series [2] was above 100 µM. Moreover, in series [3], the IC50 is above 100 µM.
In the case of `CC(C)N1C(=O)/C(=N\N=C2/C(=O)N(C)c3ncccc32)c2cccnc21` [Compound 7], the melting point was determined as 182.5 °C. In addition, in series [1], the IC50 is above 100 µM. For the same compound, in series [2], the IC50 is 98.6 ± 3.23 µM. Further, the IC50 in series [3] is above 100 µM.
